According to ChEMBL document CHEMBL3885861, “Open TG-GATES”:

Organism: Rattus norvegicus
Test: Open TG-GATES - Regimen: Single
Assay type: toxicity, organism-based, Sprague-Dawley
Set-up: regimen Single, gender Male, age 6 weeks
Conditions: in vivo, po, 1000 mg/kg, route gavage, dose level High; for APTT / Bas / Eos / Fbg / Hb / Ht / Lym / MCH / MCHC / MCV / Mono / Neu / PT / Plat / RBC / Ret / WBC: tissue Blood; for KIDNEY_L / KIDNEY_R / KIDNEY_TOTAL: tissue Kidney; for LIVER: tissue Liver; for A/G / ALP / ALT / AST / BUN / CRE / Ca / Cl / DBIL / GLC / IP / LDH / Na / PL / RALB / TBIL / TC / TG / TP / gamma-GTP: tissue Plasma

NC(N)=Nc1nc(CSCCC(N)=NS(N)(=O)=O)cs1 [FAMOTIDINE]
TERMINAL_BW (3 h): 216.4 g | APTT (3 h): 18.8 s | Bas (3 h): 0% | Eos (3 h): 1% | Fbg (3 h): 209.8 mg/dL | Hb (3 h): 12.9 g/dL | Ht (3 h): 37.1% | Lym (3 h): 80.8% | MCH (3 h): 20.8 pg | MCHC (3 h): 34.8% | MCV (3 h): 59.8 fL | Mono (3 h): 2.8% | Neu (3 h): 14% | PT (3 h): 12.6 s | Plat (3 h): 124.2 x10_4/uL | RBC (3 h): 620.2 x10_4/ul | Ret (3 h): 7.6% | WBC (3 h): 90.8 x10_2/uL | KIDNEY_L (3 h): 1 g | KIDNEY_R (3 h): 1 g | KIDNEY_TOTAL (3 h): 1.9 g | LIVER (3 h): 10.2 g | A/G (3 h): 1.6 | ALP (3 h): 873.2 IU/L | ALT (3 h): 35.6 IU/L | AST (3 h): 66.6 IU/L | BUN (3 h): 9.4 mg/dL | CRE (3 h): 0.4 mg/dL | Ca (3 h): 10.7 mg/dL | Cl (3 h): 103.4 meq/L | DBIL (3 h): 0.07 mg/dL | GLC (3 h): 194.4 mg/dL | IP (3 h): 9 mg/dL | LDH (3 h): 188.8 IU/L | Na (3 h): 140 meq/L | PL (3 h): 149.4 mg/dL | RALB (3 h): 3.3 g/dL | TBIL (3 h): 0.1 mg/dL | TC (3 h): 81.2 mg/dL | TG (3 h): 51.8 mg/dL | TP (3 h): 5.3 g/dL | gamma-GTP (3 h): 1.2 IU/L | TERMINAL_BW (6 h): 212.4 g | APTT (6 h): 20.5 s | Bas (6 h): 0% | Eos (6 h): 1% | Fbg (6 h): 217.8 mg/dL | Hb (6 h): 13.4 g/dL | Ht (6 h): 37.7% | Lym (6 h): 74% | MCH (6 h): 21.7 pg | MCHC (6 h): 35.4% | MCV (6 h): 61.2 fL | Mono (6 h): 2.8% | Neu (6 h): 20.6% | PT (6 h): 12.5 s | Plat (6 h): 112.6 x10_4/uL | RBC (6 h): 617 x10_4/ul | Ret (6 h): 6.9% | WBC (6 h): 73.8 x10_2/uL | KIDNEY_L (6 h): 1 g | KIDNEY_R (6 h): 1 g | KIDNEY_TOTAL (6 h): 1.9 g | LIVER (6 h): 9 g | A/G (6 h): 1.6 | ALP (6 h): 885.4 IU/L | ALT (6 h): 31.8 IU/L | AST (6 h): 65.8 IU/L | BUN (6 h): 8.6 mg/dL | CRE (6 h): 0.4 mg/dL | Ca (6 h): 10.6 mg/dL | Cl (6 h): 104 meq/L | DBIL (6 h): 0.072 mg/dL | GLC (6 h): 192.4 mg/dL | IP (6 h): 8.9 mg/dL | LDH (6 h): 204.2 IU/L | Na (6 h): 141 meq/L | PL (6 h): 140.4 mg/dL | RALB (6 h): 3.4 g/dL | TBIL (6 h): 0.1 mg/dL | TC (6 h): 73 mg/dL | TG (6 h): 50.8 mg/dL | TP (6 h): 5.5 g/dL | gamma-GTP (6 h): 1.4 IU/L | TERMINAL_BW (9 h): 211.3 g | APTT (9 h): 16.7 s | Bas (9 h): 0% | Eos (9 h): 0.8% | Fbg (9 h): 222.2 mg/dL | Hb (9 h): 13.1 g/dL | Ht (9 h): 36.5% | Lym (9 h): 78% | MCH (9 h): 22 pg | MCHC (9 h): 35.9% | MCV (9 h): 61.4 fL | Mono (9 h): 2.4% | Neu (9 h): 17% | PT (9 h): 12.4 s | Plat (9 h): 112.4 x10_4/uL | RBC (9 h): 594.2 x10_4/ul | Ret (9 h): 7.3% | WBC (9 h): 68.5 x10_2/uL | KIDNEY_L (9 h): 1 g | KIDNEY_R (9 h): 1 g | KIDNEY_TOTAL (9 h): 1.9 g | LIVER (9 h): 8.6 g | A/G (9 h): 1.6 | ALP (9 h): 861.4 IU/L | ALT (9 h): 28 IU/L | AST (9 h): 59.8 IU/L | BUN (9 h): 9.8 mg/dL | CRE (9 h): 0.4 mg/dL | Ca (9 h): 10.3 mg/dL | Cl (9 h): 103.8 meq/L | DBIL (9 h): 0.052 mg/dL | GLC (9 h): 205.6 mg/dL | IP (9 h): 9 mg/dL | LDH (9 h): 150 IU/L | Na (9 h): 140 meq/L | PL (9 h): 151.4 mg/dL | RALB (9 h): 3.3 g/dL | TBIL (9 h): 0.1 mg/dL | TC (9 h): 85.2 mg/dL | TG (9 h): 27.2 mg/dL | TP (9 h): 5.4 g/dL | gamma-GTP (9 h): 0.8 IU/L | TERMINAL_BW (24 h): 223.1 g | APTT (24 h): 22.2 s | Bas (24 h): 0% | Eos (24 h): 1% | Fbg (24 h): 218.4 mg/dL | Hb (24 h): 13.3 g/dL | Ht (24 h): 37.1% | Lym (24 h): 77.2% | MCH (24 h): 21.8 pg | MCHC (24 h): 35.9% | MCV (24 h): 60.7 fL | Mono (24 h): 2.8% | Neu (24 h): 17.2% | PT (24 h): 12.3 s | Plat (24 h): 129.4 x10_4/uL | RBC (24 h): 612.2 x10_4/ul | Ret (24 h): 5.8% | WBC (24 h): 77.3 x10_2/uL | KIDNEY_L (24 h): 1 g | KIDNEY_R (24 h): 1 g | KIDNEY_TOTAL (24 h): 2.1 g | LIVER (24 h): 9.6 g | A/G (24 h): 1.6 | ALP (24 h): 1062.2 IU/L | ALT (24 h): 39 IU/L | AST (24 h): 65.4 IU/L | BUN (24 h): 14.4 mg/dL | CRE (24 h): 0.4 mg/dL | Ca (24 h): 10.5 mg/dL | Cl (24 h): 102.6 meq/L | DBIL (24 h): 0.078 mg/dL | GLC (24 h): 199.6 mg/dL | IP (24 h): 8.2 mg/dL | LDH (24 h): 165 IU/L | Na (24 h): 140.2 meq/L | PL (24 h): 137.6 mg/dL | RALB (24 h): 3.3 g/dL | TBIL (24 h): 0.1 mg/dL | TC (24 h): 76.2 mg/dL | TG (24 h): 67.4 mg/dL | TP (24 h): 5.5 g/dL | gamma-GTP (24 h): 1 IU/L
